In PubChem BioAssay (NCI):
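Grown in 96-well plates, cells were treated for 48 hours with each compound at five concentrations. Insufficient inhibition: endpoint recorded as highest concentration tested. TGI marks complete inhibition of growth.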

Key:
Assay in all cases: NCI-60 cell line screen, 48 h
[1] = tested on: 786-0 renal
[2] = tested on: A498 renal
[3] = tested on: A549 NSCLC
[4] = tested on: ACHN renal
[5] = tested on: CAKI-1 renal
[6] = tested on: CCRF-CEM leukemia
[7] = tested on: COLO 205 colon
[8] = tested on: DLD-1 colon
[9] = tested on: DMS 114 small cell lung
[10] = tested on: DMS 273 small cell lung
[11] = tested on: EKVX NSCLC
[12] = tested on: HCC-2998 colon
[13] = tested on: HCT-116 colon
[14] = tested on: HCT-15 colon
[15] = tested on: HL-60(TB) leukemia
[16] = tested on: HOP-18 NSCLC
[17] = tested on: HOP-62 NSCLC
[18] = tested on: HT29 colon
[19] = tested on: IGROV1 ovarian
[20] = tested on: K-562 leukemia
[21] = tested on: KM12 colon
[22] = tested on: KM20L2 colon
[23] = tested on: LOX IMVI melanoma
[24] = tested on: LXFL 529 NSCLC
[25] = tested on: M14 melanoma
[26] = tested on: M19-MEL melanoma
[27] = tested on: MALME-3M melanoma
[28] = tested on: MOLT-4 leukemia
[29] = tested on: NCI-H226 lung
[30] = tested on: NCI-H23 lung
[31] = tested on: NCI-H460 lung
[32] = tested on: OVCAR-3 ovarian
[33] = tested on: OVCAR-4 ovarian
[34] = tested on: OVCAR-5 ovarian
[35] = tested on: OVCAR-8 ovarian
[36] = tested on: RPMI-8226 leukemia
[37] = tested on: RXF-631 renal
[38] = tested on: SF-268 CNS
[39] = tested on: SF-295 CNS
[40] = tested on: SF-539 CNS
[41] = tested on: SK-MEL-2 melanoma
[42] = tested on: SK-MEL-28 melanoma
[43] = tested on: SK-MEL-5 melanoma
[44] = tested on: SK-OV-3 ovarian
[45] = tested on: SN12C renal
[46] = tested on: SNB-19 CNS
[47] = tested on: SNB-75 CNS
[48] = tested on: SNB-78 CNS
[49] = tested on: SR leukemia
[50] = tested on: SW-620 colon
[51] = tested on: TK-10 renal
[52] = tested on: UACC-257 melanoma
[53] = tested on: UACC-62 melanoma
[54] = tested on: UO-31 renal
[55] = tested on: HOP-92 NSCLC
[56] = tested on: NCI-H522 lung
[57] = tested on: RXF 393 renal
[58] = tested on: U251 CNS
[59] = tested on: XF 498 CNS

In the case of `C(/C=C/N1CCCC1)=C\c1nc(N2CCCC2)c2ccccc2n1`, the TGI [1] is reported as 30.4 µM, the TGI [2] is reported as > 100 µM and the TGI [3] is reported as > 100 µM. For the same compound, the TGI [4] was 30.8 µM, the TGI [5] was 35.3 µM and the TGI [6] was 50.1 µM. The TGI [7] was 28.5 µM, the TGI [8] was 37.1 µM and the TGI [9] was 33.2 µM. For the same compound, the TGI [10] was 34.2 µM, the TGI [11] was 37.9 µM and the TGI [12] was 31.3 µM. It also gave a TGI [13] of 33.8 µM, a TGI [14] of 32.5 µM and a TGI [15] of 61.3 µM. The TGI [16] was 30.3 µM, the TGI [17] was 35.2 µM and the TGI [18] was 39.4 µM. The TGI [19] was 39.6 µM, the TGI [20] was 35.6 µM and the TGI [21] was > 100 µM. It also gave a TGI [22] of 51.7 µM, a TGI [23] of 32 µM and a TGI [24] of 28 µM. For the same compound, the TGI [25] was 33.5 µM, the TGI [26] was 32.2 µM and the TGI [27] was 33 µM. It also gave a TGI [28] of 52.3 µM, a TGI [29] of 39.7 µM and a TGI [30] of 32.9 µM. The TGI [31] was 33.6 µM, the TGI [32] was 29.7 µM and the TGI [33] was 27.8 µM. For the same compound, the TGI [34] was 28.9 µM, the TGI [35] was > 100 µM and the TGI [36] was 42.3 µM. For the same compound, the TGI [37] was 41.3 µM, the TGI [38] was 41.7 µM and the TGI [39] was 35.4 µM. It also gave a TGI [40] of 32.8 µM, a TGI [41] of 39.1 µM and a TGI [42] of 38.7 µM. The TGI [43] was 33.3 µM, the TGI [44] was 36.3 µM and the TGI [45] was 29 µM. The TGI [46] was 36.3 µM, the TGI [47] was 31.6 µM and the TGI [48] was 43.6 µM. For the same compound, the TGI [49] was 33.9 µM, the TGI [50] was 29.8 µM and the TGI [51] was > 100 µM. The TGI [52] was > 100 µM, the TGI [53] was 44.1 µM and the TGI [54] was 29.2 µM.
With `OCCN(CCO)c1ncnc2c1sc(=S)n2-c1ccccc1` the TGI [1] was > 100 µM, the TGI [2] was > 100 µM and the TGI [3] was > 100 µM. The TGI [4] was > 100 µM, the TGI [5] was > 100 µM and the TGI [6] was > 100 µM. The TGI [7] was > 100 µM, the TGI [8] was > 100 µM and the TGI [9] was > 100 µM. For the same compound, the TGI [10] was > 100 µM, the TGI [11] was > 100 µM and the TGI [12] was > 100 µM. The TGI [13] was > 100 µM, the TGI [14] was > 100 µM and the TGI [15] was > 100 µM. For the same compound, the TGI [16] was > 100 µM, the TGI [17] was > 100 µM and the TGI [55] was > 100 µM. For the same compound, the TGI [18] was > 100 µM, the TGI [19] was > 100 µM and the TGI [20] was > 100 µM. The TGI [21] was > 100 µM, the TGI [22] was > 100 µM and the TGI [23] was > 100 µM. For the same compound, the TGI [24] was > 100 µM, the TGI [25] was > 100 µM and the TGI [26] was > 100 µM. For the same compound, the TGI [27] was > 100 µM, the TGI [28] was > 100 µM and the TGI [29] was > 100 µM. For the same compound, the TGI [30] was > 100 µM, the TGI [31] was > 100 µM and the TGI [56] was > 100 µM. The TGI [32] was > 100 µM, the TGI [33] was > 100 µM and the TGI [34] was > 100 µM. For the same compound, the TGI [35] was > 100 µM, the TGI [36] was > 100 µM and the TGI [57] was > 100 µM. The TGI [38] was > 100 µM, the TGI [39] was > 100 µM and the TGI [40] was > 100 µM. The TGI [41] was > 100 µM, the TGI [42] was > 100 µM and the TGI [43] was > 100 µM. For the same compound, the TGI [44] was > 100 µM, the TGI [45] was > 100 µM and the TGI [46] was > 100 µM. The TGI [47] was > 100 µM, the TGI [48] was > 100 µM and the TGI [49] was > 100 µM. The TGI [50] was > 100 µM, the TGI [51] was > 100 µM and the TGI [58] was > 100 µM. The TGI [52] was > 100 µM, the TGI [53] was > 100 µM and the TGI [54] was > 100 µM. For the same compound, the TGI [59] was > 100 µM.
